# Earlier results in US20230340373A1, “CLEANING WIPES” (Tygrus LLC, priority 2022, published 2023).
# Conditions: 25 C; cited from earlier work
structure (smiles),measurement,value
C=CCc1ccc(O)c(OC)c1 [Eugenol],pKa,10.19
